# Laboratory results as given in patent EP0745595A1, “3-(3-Aryloxyphenyl)-1-(substituted methyl)-s-triazine-2,4,6-oxo or thiotrione herbicidal agents” (American Cyanamid Company, priority 1995, dated 1996).
# Columns and labels:
# Format in all cases: in vivo
# [1] = test system: CHENOPODIUM ALBUM, L.; assay: Preemergence herbicidal evaluation, CHEAL (Lambsquarters, Common); details: four to five weeks after treatment
# Summary of the method: (§1)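 Injury scored visually (0–9; stand, vigor, malformation, size, chlorosis) versus untreated control, four to five weeks post-treatment. Application: aqueous acetone spray onto freshly planted soil cups, equivalent to about 0.125 to 0.50 kg/ha, plants then kept under standard greenhouse care.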
# [2] = test system: CASSIA OBTUSIFOLIA, L.; assay: Preemergence herbicidal evaluation, CASOB (Sicklepod); details: four to five weeks after treatment
# Summary of the method: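 Preemergence herbicidal activity against sicklepod was assessed by planting seed mixed with potting soil atop about one inch of soil in pint cups. After treatment the cups were watered and handled per standard greenhouse practice. Tests ended four to five weeks later, with plant stand, vigor, malformation, size, chlorosis and overall appearance scored 0-9 relative to a control.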
# [3] = test system: TRITICUM AESTIVUM, CV. APOLLO; assay: Preemergence herbicidal evaluation, TRZAWO (Wheat, Winter, CV. APOLLO); details: four to five weeks after treatment
# Summary of the method: as §1
# [4] = test system: CYPERUS IRIA; assay: Preemergence weed control under flooded paddy conditions, CYPIR (Rice Flatsedge); details: preemergence weeds, rated three to four weeks after treatment
# Summary of the method: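 This preemergence test mimicked flooded paddy conditions: rice flatsedge propagules were sown in the upper 0.5 cm of silt loam in undrained 32 oz. containers (10.5 cm diameter), with water held 1.5 to 3 cm over the soil. After normal greenhouse care, plants were scored 0-9 for stand, vigor, malformation, size, chlorosis and appearance relative to controls.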
# [5] = test system: ABUTILON THEOPHRASTI, MEDIC.; assay: Preemergence herbicidal evaluation, ABUTH (Velvetleaf); details: four to five weeks after treatment
# Excerpt: (§2) Results of herbicide evaluation are expressed on a rating scale (0-9). The scale is based upon a visual observation of plant stand, vigor, malformation, size, chlorosis and overall plant appearance as compared with a control.
# (§3) The preemergence herbicidal activity of the test compounds of the present invention is exemplified by the following tests in which the seeds of a variety of monocotyledonous and dicotyledonous plants are separately mixed with potting soil and planted on top of approximately one inch of soil in separate pint cups. […] The treated cups are then placed on greenhouse benches, watered and cared for in accordance with conventional greenhouse procedures. From four to five weeks after treatment, the tests are terminated and each cup is examined and rated according to the rating system provided in Example 40.
# (§4) The compounds evaluated are reported by compound number given in Example 40.
# [6] = test system: AMBROSIA ARTEMISIIFOLIA, L.; assay: Preemergence herbicidal evaluation, AMBEL (Ragweed, Common); details: four to five weeks after treatment
# Summary of the method: as §1
# [7] = test system: ORYZA SATIVA, L. TEBONNET; assay: Preemergence herbicidal evaluation, ORYSAT (Rice, Tebonnet); details: four to five weeks after treatment
# Excerpt: as §2, §3, §4
# [8] = test system: ECHINOCHLOA CRUS-GALLI, (L) BEAU; assay: Preemergence herbicidal evaluation, ECHCG (Barnyardgrass); details: four to five weeks after treatment
# Summary of the method: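 In this preemergence herbicide test, cups holding seeds of ECHCG sown in potting soil over roughly one inch of soil were treated and then grown under conventional greenhouse care. Tests were ended four to five weeks after treatment, and injury was scored 0-9 from stand, vigor, malformation, size, chlorosis and overall appearance relative to a control.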
# [9] = test system: CHENOPODIUM ALBUM, L.; assay: Postemergence herbicidal evaluation, CHEAL (Lambsquarters, Common); details: rated four to five weeks after treatment, averaged
# Summary of the method: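 Postemergence herbicidal activity on Chenopodium album was tested by spraying two-week-old seedlings grown in jiffy flats with compound in acetone/water (50/50) plus 0.5% TWEEN®20, using a 40 psi nozzle. Four to five weeks after treatment, stand, vigor, malformation, size, chlorosis and overall appearance were scored 0-9 relative to controls, with repeat tests averaged.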
# [10] = test system: ABUTILON THEOPHRASTI, MEDIC.; assay: Postemergence herbicidal evaluation, ABUTH (Velvetleaf); details: rated four to five weeks after treatment, averaged
# Summary of the method: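 This postemergence herbicide test used two-week-old velvetleaf seedlings grown in jiffy flats. Each compound was sprayed at 40 psi as a dispersion in 50/50 acetone/water with 0.5% TWEEN®20 surfactant. Plants then received routine greenhouse care. After four to five weeks, injury was scored visually on a 0-9 scale against a control, and replicate tests were averaged.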
# [11] = test system: ORYZA SATIVA, L. TEBONNET; assay: Rice tolerance to post-transplant applications under flooded paddy conditions, ORYSAT (Rice, Tebonnet); details: post-transplant rice, rated three to four weeks after treatment;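 note: applied to flooded soil surface three days after transplanting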
# Summary of the method: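 Visual 0-9 rating against untreated control (stand, vigor, malformation, size, chlorosis, overall appearance), taken 3-4 weeks after treatment. Flooded silt loam, water at 1.5-3 cm; two 10-day-old seedlings per pot; compound applied to flooded soil surface 3 days post-transplant at ~0.5-0.063 kg/ha.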
# [12] = test system: SAGITTARIA PYGMAEA, L.; assay: Preemergence weed control under flooded paddy conditions, SAGPY (Arrowhead (Pygmaea)); details: preemergence weeds, rated three to four weeks after treatment
# Summary of the method: (§5)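 Visual 0-9 score (stand, vigor, malformation, size, chlorosis, appearance vs untreated control) taken 3-4 wk after treatment. Test compounds were added into flood water (1.5-3 cm over silt loam) as 50/50 v/v aqueous/acetone, equivalent to about 0.5-0.063 kg/ha a.i.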
# [13] = test system: SETARIA VIRIDIS, (L) BEAU; assay: Preemergence herbicidal evaluation, SETVI (Foxtail, Green); details: four to five weeks after treatment
# Excerpt: as §2, §3, §4
# [14] = test system: […], PRESL.; assay: Preemergence weed control under flooded paddy conditions, MOOVA (Monochoria); details: preemergence weeds, rated three to four weeks after treatment
# Summary of the method: as §5
# [15] = test system: ZEA MAYS L.; assay: Preemergence herbicidal evaluation, ZEAMX (Corn, Field); details: four to five weeks after treatment
# Summary of the method: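 Preemergence herbicidal activity on field corn: seeds in potting soil were sown atop roughly one inch of soil in separate pint cups, treated, and grown under standard greenhouse care. Four to five weeks post-treatment, stand, vigor, malformation, size, chlorosis and overall appearance were compared with a control and scored 0-9.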
# [16] = test system: CYPERUS SEROTINUS, ROTTB.; assay: Preemergence weed control under flooded paddy conditions, CYPSE (Flatsedge); details: preemergence weeds, rated three to four weeks after treatment
# Summary of the method: as §5
# [17] = test system: GLYCINE MAX(L) MERR. CV. WILLIAMS; assay: Preemergence herbicidal evaluation, GLXMAW (Soybean, Williams); details: four to five weeks after treatment
# Summary of the method: as §1
smiles,measurement,setting,value
"CCOC(=O)Cn1c(=O)[nH]c(=O)n(-c2cc(Oc3c(F)cc(C(F)(F)F)cc3Cl)ccc2C#N)c1=O [Compound 10, Ethyl 3-{5-[(2-chloro-α,α,α,6-tetrafluoro-p-tolyl)oxy]-2-cyanophenyl}tetrahydro-2,4,6-trioxo-s-triazine-1(2H)-acetate]",CHEAL rating,[1]; Rate 0.125 kg/ha,9.0
same,CHEAL rating,[1]; Rate 0.250 kg/ha,9.0
same,CHEAL rating,[1]; Rate 0.500 kg/ha,9.0
same,CASOB rating,[2]; Rate 0.125 kg/ha,0.0
same,CASOB rating,[2]; Rate 0.250 kg/ha,0.0
same,CASOB rating,[2]; Rate 0.500 kg/ha,0.0
same,TRZAWO rating,[3]; Rate 0.125 kg/ha,0.0
same,TRZAWO rating,[3]; Rate 0.250 kg/ha,0.0
same,TRZAWO rating,[3]; Rate 0.500 kg/ha,0.0
same,CYPIR herbicidal rating,[4]; Rate 0.063 kg/ha,9.0
same,CYPIR herbicidal rating,[4]; Rate 0.125 kg/ha,9.0
same,CYPIR herbicidal rating,[4]; Rate 0.250 kg/ha,9.0
same,CYPIR herbicidal rating,[4]; Rate 0.500 kg/ha,9.0
same,ABUTH rating,[5]; Rate 0.125 kg/ha,0.0
same,ABUTH rating,[5]; Rate 0.250 kg/ha,0.0
same,ABUTH rating,[5]; Rate 0.500 kg/ha,0.0
same,AMBEL rating,[6]; Rate 0.125 kg/ha,0.0
same,AMBEL rating,[6]; Rate 0.250 kg/ha,0.0
same,AMBEL rating,[6]; Rate 0.500 kg/ha,0.0
same,ORYSAT rating,[7]; Rate 0.125 kg/ha,2.0
same,ORYSAT rating,[7]; Rate 0.250 kg/ha,2.0
same,ORYSAT rating,[7]; Rate 0.500 kg/ha,2.0
same,ECHCG rating,[8]; Rate 0.125 kg/ha,0.0
same,ECHCG rating,[8]; Rate 0.250 kg/ha,0.0
same,ECHCG rating,[8]; Rate 0.500 kg/ha,0.0
same,"CHEAL, herbicide rating (0-9)",[9]; Rate 0.125 kg/ha,9.0
same,"CHEAL, herbicide rating (0-9)",[9]; Rate 0.250 kg/ha,9.0
same,"CHEAL, herbicide rating (0-9)",[9]; Rate 0.500 kg/ha,9.0
same,"ABUTH, herbicide rating (0-9)",[10]; Rate 0.125 kg/ha,9.0
same,"ABUTH, herbicide rating (0-9)",[10]; Rate 0.250 kg/ha,9.0
same,"ABUTH, herbicide rating (0-9)",[10]; Rate 0.500 kg/ha,9.0
same,ORYSAT herbicidal rating (rice tolerance),[11]; Rate 0.063 kg/ha,0.0
same,ORYSAT herbicidal rating (rice tolerance),[11]; Rate 0.125 kg/ha,1.0
same,ORYSAT herbicidal rating (rice tolerance),[11]; Rate 0.250 kg/ha,1.0
same,ORYSAT herbicidal rating (rice tolerance),[11]; Rate 0.500 kg/ha,1.0
same,SAGPY herbicidal rating,[12]; Rate 0.063 kg/ha,0.0
same,SAGPY herbicidal rating,[12]; Rate 0.125 kg/ha,0.0
same,SAGPY herbicidal rating,[12]; Rate 0.250 kg/ha,0.0
same,SAGPY herbicidal rating,[12]; Rate 0.500 kg/ha,0.0
same,SETVI rating,[13]; Rate 0.125 kg/ha,0.0
same,SETVI rating,[13]; Rate 0.250 kg/ha,0.0
same,SETVI rating,[13]; Rate 0.500 kg/ha,0.0
same,MOOVA herbicidal rating,[14]; Rate 0.063 kg/ha,9.0
same,MOOVA herbicidal rating,[14]; Rate 0.125 kg/ha,9.0
same,MOOVA herbicidal rating,[14]; Rate 0.250 kg/ha,9.0
same,MOOVA herbicidal rating,[14]; Rate 0.500 kg/ha,9.0
same,ZEAMX rating,[15]; Rate 0.125 kg/ha,0.0
same,ZEAMX rating,[15]; Rate 0.250 kg/ha,0.0
same,ZEAMX rating,[15]; Rate 0.500 kg/ha,0.0
same,CYPSE herbicidal rating,[16]; Rate 0.063 kg/ha,0.0
same,CYPSE herbicidal rating,[16]; Rate 0.125 kg/ha,0.0
same,CYPSE herbicidal rating,[16]; Rate 0.250 kg/ha,0.0
same,GLXMAW rating,[17]; Rate 0.125 kg/ha,0.0
same,GLXMAW rating,[17]; Rate 0.250 kg/ha,0.0
same,GLXMAW rating,[17]; Rate 0.500 kg/ha,0.0
